IC50 data for three compounds are collected here from patent US9346757B2, “Pyridine derivatives and their use in the treatment of conditions associated with pathological thrombus formation” (SANOFI, priority 2012, dated 2016).

Assay type in all cases: cell-based
For test [1], the target named is T1, LPA receptor LPAR5 (Homo sapiens, UniProt Q9H1C0).
T1 construct: two cell lines were used with high LPAR5 expression, the human mast cell line HMC-1; endogenous in cells; host or cells: HMC-1 human mast cell line
As to the kind of experiment: FLIPR assay, intracellular Ca2+ release in human mast cell line HMC-1. The conditions noted are these: human mast cell line HMC-1, LPA-stimulated Ca2+ release, compound added 10 minutes prior LPA. The text has this:
(§1) B) Use of the Fluorometric Imaging Plate Reader (FLIPR) Assay for the Determination of Intracellular Ca^2+ Release in Human Mast Cell Line HMC-1 and the Murine Microglia Cell Line BV-2
(§2) The ability of the compounds of the formula I to inhibit or bind the LPA receptor LPAR5 can be assessed by determining the intracellular Ca^2+ release in human or animal cells. For the analysis of activating potential of LPA and the inhibitory effects of compounds of the formula I two cell lines were used with high LPAR5 expression, the human mast cell line HMC-1 and the murine microglia cell line BV-2 (FIGS. 1 and 2). For the FLIPR assay using human mast cells in a 96-well-format, HMC-1 suspension cells from flask culture were harvested, resuspended and counted. 14×10^6 HMC-1 cells were transferred into a new 50 ml tube, centrifuged for 3 minutes at 540×g. The resulting cell pellet at the bottom of the tube was resuspended with 15 ml loading buffer (loading buffer contained HBSS buffer (pH 7.4), 0.1% BSA (bovine serum albumin), 2 μM FLUO-4 dye; HBSS buffer (pH 7.4) contained 1×HBSS, 20 mM HEPES, 0.01% Pluronic F-127, 2.5 mM Probenicid).
Cells in loading buffer were incubated for 45-60 minutes at 37° C. After incubation cells were centrifuged for 3 minutes at 540×g and resuspended with 21 ml of HBSS buffer (pH 7.4). Each well of a poly-D-lysine coated 96-well-plate was filled with 150 μl cell solution, an equivalent of 100 000 cells/well. The 96-well-plate was centifuged for 2 minutes at 100×g (without brake) prior a recovery time of 30 minutes at 37° C. After this procedure cells were stimulated with LPA (in HBSS pH 7.4 and 0.1% BSA) to determine the EC50 of LPA in HMC-1 cells. For the determination of the inhibitory effect of compounds of the formula I, test compounds were added to the cells in the 96-well-plate 10 minutes prior the addition of LPA. Results of the assay are expressed as % activation, and are calculated using maximum peak of activation (Amax). […]

The target in test [2] is T2, platelet LPA receptor LPAR5 (Homo sapiens, UniProt Q9H1C0).
T2 construct: the cellular pellet, consisting of human blood platelets was then dissolved in 10 ml buffer T; endogenous in cells; host or cells: washed human blood platelets from healthy volunteers
As to the kind of experiment: Aggregation assay for washed human blood platelets (LPA-induced). The conditions noted are these: reduction of maximal aggregation, 5 min preincubation at 37° C. The method, then:
A) Aggregation Assay for Washed Human Blood Platelets (Thrombocytes)
Whole blood was collected from healthy volunteers using 3×20 ml syringes containing each 1/10 volume of buffered citrate. The anticoagulated whole blood was transferred into 50 ml polypropylene conical tubes (30 ml per tube). The tubes were centrifuged for 10 minutes at 150×g at room temperature without using the centrifuge brake. This procedure results in a lower phase of cellular components and a supernatant (upper phase) of platelet rich plasma (PRP). The PRP phase was collected from each tube and pooled for each donor. […] The platelet concentration was determined using a ABX Micros 60 counter. […] Platelet concentration in this solution was determined and buffer T was added to obtain a final concentration of 3.5×10^5 platelets per ml.
After 10 minutes at room temperature, 1 μl PGI2 per ml platelet solution was added and distributed into new 10 ml tubes. […] Aggregation was measured over 6 minutes at 37° C. with 1200 rpm (revolutions per minute) stirring. Results of the assay are expressed as % activation, and are calculated using maximum aggregation (Tmax) or area under curve (AUC) of the absorbance over 6 minutes. The inhibitory effect (IC50) of the test compounds was determined as the reduction of the maximal aggregation. […]

Test [3] concerns the target T3, LPA receptor LPAR5 (Mus musculus, UniProt Q149R9).
T3 construct: two cell lines were used with high LPAR5 expression, the human mast cell line HMC-1 and the murine microglia cell line BV-2; endogenous in cells; host or cells: BV-2 murine microglia cell line
As to the kind of experiment: FLIPR assay, intracellular Ca2+ release in murine microglia cell line BV-2. The conditions noted are these: murine microglia cell line BV-2, LPA-stimulated Ca2+ release, compound added 10 minutes prior LPA.
Description: as §1, §2
Cells in loading buffer were incubated for 45-60 minutes at 37° C. […] Results of the assay are expressed as % activation, and are calculated using maximum peak of activation (Amax). […]

One may read the IC50 as the concentration that inhibits the measured activity by half. A low value points to inhibition by little substance.

Each structure is given as a SMILES string.

T1 sequence (Q9H1C0 whole entry): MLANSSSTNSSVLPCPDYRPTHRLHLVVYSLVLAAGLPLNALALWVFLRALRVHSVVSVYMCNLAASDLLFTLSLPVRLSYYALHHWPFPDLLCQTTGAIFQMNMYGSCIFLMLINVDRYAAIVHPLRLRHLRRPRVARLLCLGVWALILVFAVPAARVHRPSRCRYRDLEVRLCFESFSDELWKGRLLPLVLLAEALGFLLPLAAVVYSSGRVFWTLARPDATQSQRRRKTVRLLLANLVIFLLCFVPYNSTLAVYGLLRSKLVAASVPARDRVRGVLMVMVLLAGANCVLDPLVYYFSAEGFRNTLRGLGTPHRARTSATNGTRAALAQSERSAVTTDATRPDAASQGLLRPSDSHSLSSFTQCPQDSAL
T3 sequence (Q149R9 whole entry): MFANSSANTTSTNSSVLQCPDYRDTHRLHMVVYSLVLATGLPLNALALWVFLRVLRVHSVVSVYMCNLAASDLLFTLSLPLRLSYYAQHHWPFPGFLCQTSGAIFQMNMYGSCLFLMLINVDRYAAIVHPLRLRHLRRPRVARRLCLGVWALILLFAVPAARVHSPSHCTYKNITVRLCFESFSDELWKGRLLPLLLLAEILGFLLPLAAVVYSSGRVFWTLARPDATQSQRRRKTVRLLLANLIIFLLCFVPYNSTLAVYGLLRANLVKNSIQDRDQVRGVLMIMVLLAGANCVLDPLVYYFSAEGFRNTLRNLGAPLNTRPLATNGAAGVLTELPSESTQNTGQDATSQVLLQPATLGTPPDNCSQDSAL
T2 sequence (Q9H1C0 whole entry): as the sequence (Q9H1C0 whole entry) above

Regarding `Cc1nc(-c2ccc(C(F)(F)F)cc2)c(-c2ccc(Cl)cc2Cl)cc1COC(C)C(=O)Nc1ccc(C(=O)O)cc1` (centres unmarked) [Example 1, 4-{2-[5-(2,4-Dichloro-phenyl)-2-methyl-6-(4-trifluoromethyl-phenyl)-pyridin-3-ylmethoxy]-propionylamino}-benzoic acid], the 50% inhibitory concentration (IC50) at LPA receptor LPAR5 [1] came out at 3.7 µM.

On to `Cc1nc(-c2ccc(Cl)cc2)c(-c2ccc(Cl)cc2Cl)cc1COC(C)(C)C(=O)NCc1ccc(C(=O)O)cc1` [Example 14, 4-({2-[6-(4-Chloro-phenyl)-5-(2,4-dichloro-phenyl)-2-methyl-pyridin-3-ylmethoxy]-2-methyl-propionylamino}-methyl)-benzoic acid], for which the IC50 in test [2] was determined as 3.6 µM; on LPA receptor LPAR5 [1], 0.13 µM; against LPA receptor LPAR5 [3], 3.2 µM.

On to `Cc1nc(-c2ccc(Cl)cc2)c(-c2ccc(Cl)cc2Cl)cc1COC(C)(C)C(=O)NCCCC(=O)O` [Example 15, 4-{2-[6-(4-Chloro-phenyl)-5-(2,4-dichloro-phenyl)-2-methyl-pyridin-3-ylmethoxy]-2-methyl-propionylamino}-butyric acid], for which the IC50 against LPA receptor LPAR5 [1] came to 1.8 µM.
